The values that follow come from patent US5891454A, “Anti-cancer drug and special tumor necrotizing agent” (Wu; Alexander, priority 1997, dated 1999).

The structures appear in SMILES notation. Where “and” joins values, the source holds several entries; their conditions need not be identical. Equal values may be shown once.

Data set [1] concerns mouse transplanted liver tumor. Kind of data set: Anti-tumor effect on mouse transplanted liver tumor (I.M.). The following applies: CTX 18.0 mg/kg/d x10. It is filed as in vivo. From the text: (§1) A solvent blank (i.e., the specifically designed solution illustrated in Table 1), a saline blank as a […] control are used as controls for the in vivo tests. As per the Drug Administration Law of the People's Republic of China, and the rules governing observation of the pharmaco-dynamic study of the therapy action, the tumors were surgically removed from tumor infected mice and were homogenized to form suspensions followed by filtration to make a suspension solution at 1×10^6 -10^7 cell/ml. The suspension was injected (i.e., 0.2 ml per mice) into the test mice for tumor growth until the transplanted tumor cells were established and grew up to a size of 0.5×0.5 cm. […] At the end of the in vivo tests, several parameters such as mouse body weight, average tumor weight and percentage of tumor inhibition, are determined.
(§2) % inhibition rate=(average tumor weight of the solvent group or
(§3) tumor rate of the solvent group

Another data set has as its system mouse S-180 sarcoma. Kind of data set: Anti-tumor effect on mouse transplanted sarcoma S-180 (I.M.). It is filed as in vivo. The following applies: CTX 18.0 mg/kg/d x10.
Excerpt: as §1, §2, §3

Another data set can be described thus: Solubility in water. It is filed as physicochemical. The following applies: water or a water-based solution.
Another data set deals with skin fungal diseases. The following applies: 7-8% solution by weight with propylene glycol; cited from earlier work.
Setting [2] is: P <0.01 vs saline control, three experiments.

As to `O=P1(N(CCCl)CCCl)NCCCO1` (centres unmarked) [CTX], the Anti-tumor inhibit rate was 40.7% and 46.2% and 60.0% in data set [1] (setting [2]); 51.6% and 53.3% and 52.5% in the data set with mouse S-180 sarcoma (setting [2]). For the same compound, the Body weight final in data set [1] (outset 19.9, 20.3, 20.9 in three experiments, in g (unit assumed)) is 27.9 and 28.5; with mouse S-180 sarcoma (outset 22.4, 22.6, 19.3 in three experiments, in g (unit assumed)) it was 30.9 and 26.4. In addition, the “Ave. weight of tumor (x + SD)” value in data set [1] (three experiments) was 1.81 ± 0.22 g and 1.57 ± 0.63 g and 0.94 ± 0.41 g. The “Ave. weight of tumor (x ± SD)” value in the data set with mouse S-180 sarcoma (three experiments) is 1.37 ± 0.47 g and 1.29 ± 0.43 g and 1.14 ± 0.28 g.

Turning to `Cc1ccc(S(N)(=O)=O)cc1` [para-toluene sulfonamide], the dissolution in water entry in “Solubility in water” was “not readily dissolved in water or in a water-based solution”. Also, the topical anti-fungal activity entry with skin fungal diseases is “highly effective”.
